Measured values as given in US11661400B2, “NADPH oxidase inhibitors, pharmaceutical composition comprising the same, and application thereof” (TAIWANJ PHARMACEUTICALS CO., LTD., priority 2018, dated 2023).

Experiments:
NOX1 = biological target: T1, NOX1 (Homo sapiens, UniProt Q9Y5S8); assay: NOX1 HT29 cell-based assay (luminol/HRP luminescence); settings: HT29 cells, DMSO = 0%, GKT137831 = 100%; for inhibition at 0.1 µM / inhibition at 1 µM: HT-29
T1 construct: endogenous in cells; host or cells: HT29
T1 sequence (Q9Y5S8 1-564): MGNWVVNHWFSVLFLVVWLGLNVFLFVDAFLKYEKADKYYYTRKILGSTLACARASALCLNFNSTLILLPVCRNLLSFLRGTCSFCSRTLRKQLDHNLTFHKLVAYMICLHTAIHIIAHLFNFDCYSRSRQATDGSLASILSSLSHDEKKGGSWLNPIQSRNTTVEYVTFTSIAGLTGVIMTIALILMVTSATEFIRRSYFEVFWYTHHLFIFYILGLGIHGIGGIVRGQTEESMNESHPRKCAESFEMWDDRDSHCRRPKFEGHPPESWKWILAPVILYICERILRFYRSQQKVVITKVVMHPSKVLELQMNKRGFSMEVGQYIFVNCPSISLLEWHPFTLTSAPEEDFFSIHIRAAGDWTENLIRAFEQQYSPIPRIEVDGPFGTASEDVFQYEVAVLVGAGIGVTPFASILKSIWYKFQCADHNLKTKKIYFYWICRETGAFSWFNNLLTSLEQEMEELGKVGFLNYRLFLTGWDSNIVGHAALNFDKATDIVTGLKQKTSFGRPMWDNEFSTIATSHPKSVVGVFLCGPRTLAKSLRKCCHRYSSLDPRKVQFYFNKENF
T1 sequence (P13498 2-195 partner limits assumed): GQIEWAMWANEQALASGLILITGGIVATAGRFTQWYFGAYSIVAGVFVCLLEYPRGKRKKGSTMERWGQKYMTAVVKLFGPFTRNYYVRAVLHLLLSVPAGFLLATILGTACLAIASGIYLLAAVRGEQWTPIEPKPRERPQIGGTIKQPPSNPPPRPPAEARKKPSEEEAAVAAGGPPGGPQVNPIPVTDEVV
Description: NOX1 HT29 Cell-Based Assay:
HT29 cells were cultured in T75 flask (Corning) and when 70-80% confluence was reached, cells were trypsinized, harvested in HBSS and counted. 1-2×10^5 cells were dispensed into individual wells in 70 μl final volume (96-well plates, white Corning). Cells were treated for 30-60 mins at 37° C. with 10 μl of GKT137831, DMSO and test compounds from their respective assay plates. This will correspond to a final concentration of 100 nM, 1000 nM GKT137831 or test compounds, and 0.1% DMSO. 20 μL of a mixture containing 100 μM luminol plus 0.4 units of HRP (final concentration) was added. Luminescence was quantified using a SpectraMax i3 Multiplate reader (Molecular Devices, Sunnyvale, Calif., USA). As designed, compounds that inhibit NOX1 activity will reduce cellular ROS production, leading to reduced probe-ROS interactions and reduced well luminescence. Compounds were tested in duplicate at a concentration of 100 nM and 1000 nM. DMSO and GKT137831 wells were applied as negative and positive controls, and the activities measured were set to 0% and 100%, respectively.

NOX2 = biological target: T2, NOX2 (Homo sapiens, UniProt P04839); assay: NOX2 HL60 cell-based assay (PMA oxidative burst, L012 chemiluminescence); settings: DMSO-differentiated HL-60 cells, PMA-stimulated; for inhibition at 0.1 µM: HL-60, 100 nM; for inhibition at 1 µM: HL-60, 1000 nM
T2 construct: HL-60 cells, rich in NOX2 expression; endogenous in cells; host or cells: DMSO-differentiated HL-60
T2 sequence (P04839 2-570 limits assumed): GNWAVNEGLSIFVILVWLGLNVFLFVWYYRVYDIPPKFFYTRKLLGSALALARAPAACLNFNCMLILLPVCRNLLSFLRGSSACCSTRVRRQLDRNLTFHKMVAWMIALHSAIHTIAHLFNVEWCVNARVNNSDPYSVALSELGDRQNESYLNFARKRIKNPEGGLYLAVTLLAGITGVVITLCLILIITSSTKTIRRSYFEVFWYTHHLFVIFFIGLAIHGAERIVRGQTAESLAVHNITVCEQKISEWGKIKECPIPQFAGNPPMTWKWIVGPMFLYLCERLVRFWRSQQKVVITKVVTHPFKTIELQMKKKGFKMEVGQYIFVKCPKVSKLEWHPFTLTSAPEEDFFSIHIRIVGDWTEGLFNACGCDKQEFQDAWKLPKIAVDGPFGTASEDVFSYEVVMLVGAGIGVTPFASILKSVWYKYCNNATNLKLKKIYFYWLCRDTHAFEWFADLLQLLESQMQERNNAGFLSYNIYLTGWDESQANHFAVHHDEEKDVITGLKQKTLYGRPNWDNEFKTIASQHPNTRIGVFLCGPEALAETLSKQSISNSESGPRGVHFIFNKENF
T2 sequence (P13498 2-195 partner limits assumed): T1 sequence (P13498 2-195 partner limits assumed)
Description: NOX2 HL60 Cell-Based Assay:
HL-60 cells, rich in NOX2 expression, was stimulated to undergo oxidative burst by phorbol myristate acetate (PMA). The ROS produced during this process was measured using the O2^−-specific chemiluminescent probe L012. L012 was added to DMSO-differentiated HL-60 cell suspensions to a final concentration of 100 μM. Then, 80 μL aliquots of cell suspension (2.5×10^5 cells) were transferred to individual wells of a 96-well plate. Test compounds were directly added to the wells at the specified concentrations. Following a 30-60 mins incubation at 37° C. in the dark, the oxidative burst was initiated by the addition of 10 ng/mL PMA, and the chemiluminescence signal was recorded every 5 min over a period of 60 mins in a SpectraMax i3 Multiplate reader (Molecular Devices, Sunnyvale, Calif., USA). • NOX4 HEK293 Overexpression Cell-Based Assay: […]

NOX4 = biological target: T3, NOX4 (Homo sapiens, UniProt Q9NPH5); assay: NOX4 HEK293 overexpression cell-based assay (Amplex Red H2O2); settings: HEK293 cells stably overexpressing NOX4, DMSO = 0, GKT137831 = 100; for inhibition at 0.1 µM: HEK293, 100 nM; for inhibition at 1 µM: HEK293, 1000 nM
T3 construct: expressed in transfected cells
T3 sequence (Q9NPH5 1-578): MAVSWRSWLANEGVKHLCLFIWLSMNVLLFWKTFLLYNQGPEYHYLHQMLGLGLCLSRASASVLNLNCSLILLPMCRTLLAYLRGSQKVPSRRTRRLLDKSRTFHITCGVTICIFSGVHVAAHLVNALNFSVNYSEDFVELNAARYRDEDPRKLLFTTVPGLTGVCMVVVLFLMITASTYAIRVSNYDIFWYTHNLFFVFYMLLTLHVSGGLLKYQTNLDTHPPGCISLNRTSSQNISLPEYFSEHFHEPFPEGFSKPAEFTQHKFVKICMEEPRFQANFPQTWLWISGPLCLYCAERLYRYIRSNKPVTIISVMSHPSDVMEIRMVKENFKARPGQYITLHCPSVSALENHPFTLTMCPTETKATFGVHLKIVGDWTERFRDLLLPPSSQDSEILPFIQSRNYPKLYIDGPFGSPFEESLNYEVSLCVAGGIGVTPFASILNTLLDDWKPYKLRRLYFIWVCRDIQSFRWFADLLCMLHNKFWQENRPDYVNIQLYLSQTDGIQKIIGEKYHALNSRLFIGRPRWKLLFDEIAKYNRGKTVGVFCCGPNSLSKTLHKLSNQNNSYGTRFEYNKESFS
T3 sequence (P13498 2-195 partner limits assumed): T1 sequence (P13498 2-195 partner limits assumed)
Description: Extracellular H2O2 measurement using Amplex™ Red Hydrogen Peroxide/Peroxidase Assay Kit (Catalog number: A22188; Invitrogen, Carlsbad, Calif., USA) was used to detect extracellular H2O2 release by HEK293 cells stably overexpressing NOX4. NOX4 clonal cells in log-phase growth were trypsinized, washed, and dispersed thoroughly. Following trypsinization, the cells (3×10^4) were resuspended in 100 μL of 1× Krebs-Ringer phosphate glucose (KRPG) buffer containing various concentrations of GKT137831 or test compounds and incubated at 37° C. for 30 min. Cells were mixed with 100 μL of Amplex Red reagent solution containing 50 μM Amplex Red and 0.1 units/mL of HRP in KRPG buffer; each assay condition was evaluated induplicate. The samples were incubated at 37° C. for 90 mins in the dark, and then centrifuged at 2,500 g for 5 mins. The supernatants were loaded to a 96 well plate, and then measured using a SpectraMax i3 Multiplate reader (Molecular Devices, Sunnyvale, Calif., USA) at 530 nm excitation and 590 nm emission respectively. DMSO and GKT137831 wells were applied as negative and positive controls, and the activities measured were set to 0 and 100, respectively.

## COc1cc2[nH]c(-c3cccs3)c(O)c(=O)c2cc1OC [Compound 7]
NOX1; 100 nM
  inhibition at 0.1 µM: ≥ 80%
NOX1; 1000 nM
  inhibition at 1 µM: ≥ 80%
NOX2
  inhibition at 0.1 µM: ≤ 19%
  inhibition at 1 µM: 50 to 79%
NOX4
  inhibition at 0.1 µM: 50 to 79%
  inhibition at 1 µM: ≥ 80%

## COc1cc2[nH]c(-c3ccccc3C(F)(F)F)c(O)c(=O)c2cc1OC [Compound 41, 3-hydroxy-6,7-dimethoxy-2-(2-(trifluoromethyl)phenyl) quinolin-4(1H)-one]
NOX1; 100 nM
  % Inhibition NOX1: A (the percent of inhibition of NOX by the compounds is larger than or equals to 80%)
NOX1; 1000 nM
  % Inhibition NOX1: A (the percent of inhibition of NOX by the compounds is larger than or equals to 80%)
NOX2; 100 nM, 0.1 µM
  % Inhibition NOX2: C (the percent of inhibition of NOX by the compounds ranges from 2000 to 49%)
NOX2; 1000 nM, 1 µM
  % Inhibition NOX2: A (the percent of inhibition of NOX by the compounds is larger than or equals to 80%)
NOX4; 100 nM
  % Inhibition NOX4: B (the percent of inhibition of NOX by the compounds ranges from 50% o to 79% o)
NOX4; 1000 nM
  % Inhibition NOX4: B (the percent of inhibition of NOX by the compounds ranges from 50% o to 79% o)

## COc1cc2[nH]c(-c3ccccc3OC(F)(F)F)c(O)c(=O)c2cc1OC [Compound 48]
NOX1; 100 nM
  % Inhibition NOX1: A (the percent of inhibition of NOX by the compounds is larger than or equals to 80%)
NOX1; 1000 nM
  % Inhibition NOX1: A (the percent of inhibition of NOX by the compounds is larger than or equals to 80%)
NOX2; 100 nM, 0.1 µM
  % Inhibition NOX2: C (the percent of inhibition of NOX by the compounds ranges from 2000 to 49%)
NOX2; 1000 nM, 1 µM
  % Inhibition NOX2: B (the percent of inhibition of NOX by the compounds ranges from 50% o to 79% o)
NOX4; 100 nM
  % Inhibition NOX4: C (the percent of inhibition of NOX by the compounds ranges from 2000 to 49%)
NOX4; 1000 nM, 1 µM
  % Inhibition NOX4: A (the percent of inhibition of NOX by the compounds is larger than or equals to 80%)

## COc1cc2[nH]c(-c3ccc(C(F)(F)F)cc3)c(O)c(=O)c2cc1OC [Compound 12]
NOX1; 100 nM
  inhibition at 0.1 µM: ≤ 19%
NOX1; 1000 nM
  inhibition at 1 µM: ≥ 80%
NOX2
  inhibition at 0.1 µM: ≤ 19%
  inhibition at 1 µM: ≤ 19%
NOX4
  inhibition at 0.1 µM: ≤ 19%
  inhibition at 1 µM: ≥ 80%

## COc1cc2[nH]c(-c3ccccc3OC)c(O)c(=O)c2cc1OC.Cl [Compound 51]
NOX1; 100 nM
  inhibition at 0.1 µM: ≥ 80%
NOX1; 1000 nM
  inhibition at 1 µM: ≥ 80%
NOX2; 100 nM
  % Inhibition NOX2: C (the percent of inhibition of NOX by the compounds ranges from 2000 to 49%)
NOX2
  inhibition at 1 µM: ≥ 80%
NOX4; 1000 nM
  % Inhibition NOX4: B (the percent of inhibition of NOX by the compounds ranges from 50% o to 79% o)
NOX4
  inhibition at 0.1 µM: ≤ 19%

## COc1cc2[nH]c(-c3ccccc3Cl)c(O)c(=O)c2cc1OC [Compound 46]
NOX1; 100 nM
  % Inhibition NOX1: A (the percent of inhibition of NOX by the compounds is larger than or equals to 80%)
NOX1; 1000 nM
  % Inhibition NOX1: A (the percent of inhibition of NOX by the compounds is larger than or equals to 80%)
NOX2; 100 nM
  % Inhibition NOX2: D (the percent of inhibition of NOX by the compounds is smaller than or equals to 19% o)
NOX2; 1000 nM
  % Inhibition NOX2: A (the percent of inhibition of NOX by the compounds is larger than or equals to 80%)
NOX4; 100 nM
  % Inhibition NOX4: B (the percent of inhibition of NOX by the compounds ranges from 50% o to 79% o)
NOX4; 1000 nM, 1 µM
  % Inhibition NOX4: B (the percent of inhibition of NOX by the compounds ranges from 50% o to 79% o)

## COc1cc2[nH]c(-c3ccccc3C(F)(F)F)c(O)c(=O)c2cc1OC [Compound 44, 3-hydroxy-6,7-dimethoxy-2-(2-(trifluoromethyl)phenyl)quinolin-4(1H)-one methanesulfonate]
NOX2; 100 nM, methanesulfonate, 0.1 µM
  % Inhibition NOX2: C (the percent of inhibition of NOX by the compounds ranges from 2000 to 49%)
NOX2; 1000 nM, methanesulfonate, 1 µM
  % Inhibition NOX2: A (the percent of inhibition of NOX by the compounds is larger than or equals to 80%)
